From the NIST ThermoML archive (doi:10.1016/j.fluid.2015.04.017)

Experiment: refractive index (Na D-line) (dimensionless); xn = mol fraction of the nth substance listed
Conditions: 101 kPa, Liquid, Standard Abbe refractometry

CCOC(=O)C(C)O (stereo not drawn) [DL-ethyl lactate] + CCC(C)=O
refractive index
Conditions	x1 = 0.0999	x1 = 0.1999	x1 = 0.3001	x1 = 0.4001	x1 = 0.5	x1 = 0.5998	x1 = 0.6999	x1 = 0.8	x1 = 0.9001	x1 = 1
288.15 K	1.3864	1.39058	1.39458	1.39808	1.40142	1.40472	1.40745	1.41049	1.41285	1.41571
293.15 K	1.38393	1.38819	1.39209	1.39574	1.39914	1.40234	1.40537	1.40818	1.41078	1.41307
298.15 K	1.38138	1.38566	1.38959	1.3933	1.39673	1.39997	1.40302	1.40585	1.40846	1.41076
303.15 K	1.37882	1.38314	1.38712	1.39082	1.39428	1.39754	1.40061	1.40346	1.4061	1.40843
308.15 K	1.37622	1.38055	1.38457	1.38833	1.39183	1.39511	1.39819	1.40105	1.40371	1.4061
313.15 K	1.37361	1.37791	1.38199	1.38577	1.38931	1.39263	1.39575	1.39864	1.40133	1.40374
318.15 K	1.37092	1.37524	1.37932	1.38316	1.38671	1.39001	1.39312	1.396	1.39886	1.40136
323.15 K	1.36811	1.3724	1.3765	1.38033	1.38393	1.38737	1.39051	1.39348	1.39642	1.39898

CCOC(=O)C(C)O (stereo not drawn) [DL-ethyl lactate] + CN1CCCC1=O
refractive index
Conditions	x1 = 0.0999	x1 = 0.2	x1 = 0.3001	x1 = 0.4	x1 = 0.4997	x1 = 0.6	x1 = 0.7002	x1 = 0.7999	x1 = 0.8997	x1 = 1
288.15 K	1.46662	1.46071	1.45507	1.44952	1.44392	1.43817	1.43232	1.42648	1.42076	1.41537
293.15 K	1.46449	1.45857	1.4529	1.44734	1.44172	1.43597	1.43014	1.4243	1.41855	1.41307
298.15 K	1.46235	1.45645	1.45078	1.4452	1.43956	1.4338	1.42795	1.42209	1.41631	1.41076
303.15 K	1.46021	1.45431	1.44863	1.44302	1.43738	1.43161	1.42575	1.41988	1.41406	1.40843
308.15 K	1.45809	1.45218	1.44646	1.44084	1.43516	1.42939	1.42354	1.41768	1.41183	1.4061
313.15 K	1.45594	1.45005	1.44428	1.43859	1.43288	1.4271	1.42126	1.41542	1.40957	1.40374
318.15 K	1.45386	1.44796	1.44218	1.43648	1.43073	1.4249	1.41902	1.41312	1.40722	1.40136
323.15 K	1.45178	1.44586	1.44006	1.43431	1.42854	1.42269	1.41679	1.41086	1.40492	1.39898

CCOC(=O)C(C)O (stereo not drawn) [DL-ethyl lactate] + Cc1ccccc1
refractive index
Conditions	x1 = 0.1001	x1 = 0.2001	x1 = 0.3	x1 = 0.4	x1 = 0.4998	x1 = 0.6001	x1 = 0.7	x1 = 0.7999	x1 = 0.9	x1 = 1
288.15 K	1.48891	1.47943	1.47043	1.46159	1.45318	1.44507	1.43735	1.42997	1.42267	1.41537
293.15 K	1.48604	1.47659	1.46764	1.45886	1.45051	1.44249	1.43485	1.42751	1.42032	1.41307
298.15 K	1.48316	1.47373	1.46482	1.45613	1.44784	1.43988	1.43231	1.42508	1.41794	1.41076
303.15 K	1.4803	1.47091	1.46199	1.45336	1.44515	1.43728	1.4298	1.42263	1.41555	1.40843
308.15 K	1.47745	1.46812	1.45914	1.45069	1.44254	1.43474	1.42731	1.42018	1.41313	1.4061
313.15 K	1.47462	1.46532	1.45628	1.44801	1.4399	1.43218	1.4248	1.41773	1.4107	1.40374
318.15 K	1.47184	1.46262	1.45368	1.44558	1.4376	1.42987	1.42243	1.41531	1.40819	1.40136
323.15 K	1.46909	1.45995	1.45131	1.44313	1.43523	1.42752	1.42006	1.41291	1.40578	1.39898
